From BindingDB's records for doi:10.1021/jm051030l (University of Pittsburgh, 2006)
Where a name gives a salt, the structure may show the parent alone.

Target: Cytoplasmic dynein 1 heavy chain 1 (Rattus norvegicus, UniProt P38650)
Assay: Inhibition of MT-stimulated ATPase activity of rat cytoplasmic dynein heavy chain motor domain

Sequence of Cytoplasmic dynein 1 heavy chain 1 (P38650 whole entry, the tested form may be a part): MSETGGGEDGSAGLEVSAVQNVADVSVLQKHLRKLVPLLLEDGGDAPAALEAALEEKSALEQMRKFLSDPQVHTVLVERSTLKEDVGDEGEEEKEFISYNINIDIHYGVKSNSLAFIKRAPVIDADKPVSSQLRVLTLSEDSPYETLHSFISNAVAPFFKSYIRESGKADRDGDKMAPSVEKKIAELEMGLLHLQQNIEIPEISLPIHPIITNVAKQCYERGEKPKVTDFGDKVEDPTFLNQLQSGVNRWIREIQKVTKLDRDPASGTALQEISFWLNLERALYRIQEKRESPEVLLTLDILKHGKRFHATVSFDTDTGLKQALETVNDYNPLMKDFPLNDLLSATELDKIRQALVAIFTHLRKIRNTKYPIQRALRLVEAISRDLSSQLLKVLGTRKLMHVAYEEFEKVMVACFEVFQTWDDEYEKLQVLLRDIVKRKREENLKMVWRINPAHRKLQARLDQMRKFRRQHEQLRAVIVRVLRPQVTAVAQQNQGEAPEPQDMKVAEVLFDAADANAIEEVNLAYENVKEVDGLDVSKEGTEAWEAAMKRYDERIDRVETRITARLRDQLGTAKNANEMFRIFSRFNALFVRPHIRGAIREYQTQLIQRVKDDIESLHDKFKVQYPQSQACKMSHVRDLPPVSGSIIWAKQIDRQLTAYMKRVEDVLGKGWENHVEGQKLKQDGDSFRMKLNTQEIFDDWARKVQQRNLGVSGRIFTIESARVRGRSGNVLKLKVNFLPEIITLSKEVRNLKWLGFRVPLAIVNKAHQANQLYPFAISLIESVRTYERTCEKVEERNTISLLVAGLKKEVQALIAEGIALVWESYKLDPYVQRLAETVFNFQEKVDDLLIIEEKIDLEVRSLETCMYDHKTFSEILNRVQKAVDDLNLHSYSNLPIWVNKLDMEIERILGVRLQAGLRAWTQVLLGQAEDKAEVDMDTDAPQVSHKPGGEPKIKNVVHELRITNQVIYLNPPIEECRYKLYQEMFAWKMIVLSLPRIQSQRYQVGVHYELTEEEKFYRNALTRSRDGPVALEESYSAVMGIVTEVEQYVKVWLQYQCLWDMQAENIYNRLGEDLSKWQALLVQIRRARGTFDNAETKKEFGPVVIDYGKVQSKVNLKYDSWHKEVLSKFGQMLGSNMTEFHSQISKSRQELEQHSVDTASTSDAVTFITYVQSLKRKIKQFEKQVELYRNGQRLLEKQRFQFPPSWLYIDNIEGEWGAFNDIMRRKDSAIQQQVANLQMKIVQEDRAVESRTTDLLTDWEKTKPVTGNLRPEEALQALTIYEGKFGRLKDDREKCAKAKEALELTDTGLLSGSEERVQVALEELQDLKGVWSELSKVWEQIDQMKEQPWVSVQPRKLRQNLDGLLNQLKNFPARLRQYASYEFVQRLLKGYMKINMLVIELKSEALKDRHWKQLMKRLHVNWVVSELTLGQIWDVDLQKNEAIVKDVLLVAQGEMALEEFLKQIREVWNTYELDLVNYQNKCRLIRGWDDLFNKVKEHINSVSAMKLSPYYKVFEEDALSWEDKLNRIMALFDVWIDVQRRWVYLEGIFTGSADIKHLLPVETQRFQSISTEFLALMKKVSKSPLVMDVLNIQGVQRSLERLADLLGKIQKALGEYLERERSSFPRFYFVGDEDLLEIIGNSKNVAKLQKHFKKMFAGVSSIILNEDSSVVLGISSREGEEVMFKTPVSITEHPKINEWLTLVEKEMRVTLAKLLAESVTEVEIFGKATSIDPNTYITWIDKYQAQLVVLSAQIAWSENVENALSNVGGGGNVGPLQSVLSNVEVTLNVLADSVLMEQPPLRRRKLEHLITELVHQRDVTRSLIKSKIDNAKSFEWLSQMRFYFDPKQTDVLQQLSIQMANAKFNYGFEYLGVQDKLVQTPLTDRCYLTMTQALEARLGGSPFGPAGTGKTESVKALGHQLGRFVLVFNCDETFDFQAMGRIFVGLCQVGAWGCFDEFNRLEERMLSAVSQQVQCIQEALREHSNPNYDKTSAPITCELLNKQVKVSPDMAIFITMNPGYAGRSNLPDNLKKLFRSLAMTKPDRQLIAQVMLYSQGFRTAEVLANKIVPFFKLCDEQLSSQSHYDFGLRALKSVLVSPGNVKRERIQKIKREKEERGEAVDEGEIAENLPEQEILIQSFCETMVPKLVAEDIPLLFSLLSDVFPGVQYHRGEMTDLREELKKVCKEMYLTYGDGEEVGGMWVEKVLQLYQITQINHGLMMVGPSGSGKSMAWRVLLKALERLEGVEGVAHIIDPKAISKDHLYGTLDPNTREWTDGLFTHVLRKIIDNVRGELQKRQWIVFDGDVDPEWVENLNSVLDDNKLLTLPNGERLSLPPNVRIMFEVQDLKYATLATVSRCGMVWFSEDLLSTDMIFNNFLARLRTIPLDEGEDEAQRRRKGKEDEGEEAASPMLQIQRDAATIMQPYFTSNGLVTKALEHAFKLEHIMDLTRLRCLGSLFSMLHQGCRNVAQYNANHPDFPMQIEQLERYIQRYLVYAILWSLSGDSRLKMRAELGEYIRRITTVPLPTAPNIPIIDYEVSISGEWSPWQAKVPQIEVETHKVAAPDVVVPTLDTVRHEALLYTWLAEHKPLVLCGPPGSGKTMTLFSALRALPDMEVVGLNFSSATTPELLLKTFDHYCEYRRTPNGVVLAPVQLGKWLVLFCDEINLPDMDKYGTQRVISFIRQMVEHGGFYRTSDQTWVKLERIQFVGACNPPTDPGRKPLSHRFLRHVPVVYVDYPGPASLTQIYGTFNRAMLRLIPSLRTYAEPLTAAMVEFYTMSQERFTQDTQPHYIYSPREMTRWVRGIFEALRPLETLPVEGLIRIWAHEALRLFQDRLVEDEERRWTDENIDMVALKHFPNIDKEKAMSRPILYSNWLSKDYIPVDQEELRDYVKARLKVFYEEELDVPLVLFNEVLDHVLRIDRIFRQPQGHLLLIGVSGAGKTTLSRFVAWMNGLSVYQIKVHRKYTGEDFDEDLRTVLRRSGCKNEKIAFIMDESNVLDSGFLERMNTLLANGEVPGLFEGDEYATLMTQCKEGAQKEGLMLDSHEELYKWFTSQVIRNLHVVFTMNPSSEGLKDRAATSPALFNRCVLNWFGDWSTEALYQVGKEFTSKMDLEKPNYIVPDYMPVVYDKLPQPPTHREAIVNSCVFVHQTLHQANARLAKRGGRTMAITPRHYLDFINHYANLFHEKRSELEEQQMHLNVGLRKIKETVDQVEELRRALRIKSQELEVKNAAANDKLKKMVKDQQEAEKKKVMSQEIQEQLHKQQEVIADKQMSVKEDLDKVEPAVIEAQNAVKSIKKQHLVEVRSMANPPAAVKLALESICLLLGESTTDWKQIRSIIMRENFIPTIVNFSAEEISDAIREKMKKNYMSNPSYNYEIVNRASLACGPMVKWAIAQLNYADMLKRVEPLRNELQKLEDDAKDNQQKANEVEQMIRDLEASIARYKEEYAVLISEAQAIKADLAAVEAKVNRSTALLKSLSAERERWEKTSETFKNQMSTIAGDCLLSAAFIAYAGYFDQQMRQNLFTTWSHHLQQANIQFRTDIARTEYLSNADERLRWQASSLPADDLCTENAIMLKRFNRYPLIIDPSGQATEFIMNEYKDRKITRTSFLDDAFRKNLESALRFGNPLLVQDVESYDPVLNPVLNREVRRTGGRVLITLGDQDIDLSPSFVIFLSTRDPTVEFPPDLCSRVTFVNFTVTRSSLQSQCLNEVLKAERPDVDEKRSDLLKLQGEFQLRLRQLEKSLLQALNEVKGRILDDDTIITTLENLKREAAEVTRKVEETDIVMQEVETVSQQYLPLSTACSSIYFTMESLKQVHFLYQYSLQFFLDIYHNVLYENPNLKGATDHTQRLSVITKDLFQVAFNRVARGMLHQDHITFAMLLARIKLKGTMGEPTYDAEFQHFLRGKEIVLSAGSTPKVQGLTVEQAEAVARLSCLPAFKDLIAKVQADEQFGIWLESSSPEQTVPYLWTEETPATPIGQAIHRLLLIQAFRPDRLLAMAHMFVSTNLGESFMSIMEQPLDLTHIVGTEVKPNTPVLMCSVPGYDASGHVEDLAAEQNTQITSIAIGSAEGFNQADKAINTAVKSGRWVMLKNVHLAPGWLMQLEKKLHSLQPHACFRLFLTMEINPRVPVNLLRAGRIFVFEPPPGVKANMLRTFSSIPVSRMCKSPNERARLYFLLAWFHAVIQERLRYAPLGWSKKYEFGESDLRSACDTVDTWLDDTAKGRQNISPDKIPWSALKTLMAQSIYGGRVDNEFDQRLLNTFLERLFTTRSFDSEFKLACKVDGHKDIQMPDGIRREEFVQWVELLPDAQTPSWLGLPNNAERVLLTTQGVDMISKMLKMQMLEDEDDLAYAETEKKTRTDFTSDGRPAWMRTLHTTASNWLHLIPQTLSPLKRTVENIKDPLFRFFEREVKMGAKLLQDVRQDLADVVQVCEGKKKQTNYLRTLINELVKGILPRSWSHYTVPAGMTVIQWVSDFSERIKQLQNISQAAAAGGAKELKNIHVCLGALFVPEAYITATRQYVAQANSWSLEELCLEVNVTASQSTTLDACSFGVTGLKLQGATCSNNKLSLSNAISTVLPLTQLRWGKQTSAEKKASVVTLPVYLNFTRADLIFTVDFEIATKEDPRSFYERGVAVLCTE

Structure (SMILES)	IC50
NCCCOc1c(Br)cc(Br)cc1CC(N=O)C(=O)NCCc1c[nH]c2ccccc12 (stereo unspecified) [3-[2-(3-aminopropoxy)-3,5-dibromophenyl]-2-hydroxyimino-N-[2-(1H-indol-3-yl)ethyl]propanamide hydrochloride]	> 50 µM
NCCCOc1c(Br)cc(Br)cc1CC(N=O)C(=O)NCCc1ccc(Cl)cc1 (stereo unspecified) [3-[2-(3-aminopropoxy)-3,5-dibromophenyl]-N-[2-(4-chlorophenyl)ethyl]-2-hydroxyiminopropanamide hydrochloride]	> 50 µM
NCCCOc1c(Cl)cc(Cl)cc1CC(N=O)C(=O)NCCc1c[nH]c2ccccc12 (stereo unspecified) [3-[2-(3-aminopropoxy)-3,5-dichlorophenyl]-2-hydroxyimino-N-[2-(1H-indol-3-yl)ethyl]propanamide hydrochloride]	> 50 µM
NCCCOc1ccc(CC(N=O)C(=O)NCCc2c[nH]c3ccccc23)cc1Br (stereo unspecified) [3-[4-(3-aminopropoxy)-3-bromophenyl]-2-hydroxyimino-N-[2-(1H-indol-3-yl)ethyl]propanamide hydrochloride]	> 50 µM
NCCCOc1ccc(CC(N=O)C(=O)NCCc2ccc(Cl)cc2)cc1Br (stereo unspecified) [3-[4-(3-aminopropoxy)-3-bromophenyl]-N-[2-(4-chlorophenyl)ethyl]-2-hydroxyiminopropanamide hydrochloride]	> 50 µM
CCCCCCCCCCCCCC(=O)NCCCOc1c(Br)cc(CC(N=O)C(=O)NCCc2cnc(N)[nH]2)cc1Br (stereo unspecified) [Lipopurealin A]	> 50 µM
